The source of these data is PubChem BioAssay (NCI).

Where “and” joins values, the source holds several entries; their conditions need not be identical. Equal values may be shown once.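 Step 1: Grow cells in 96-well plates. Step 2: Expose to compound for 48 hours at 5 concentrations. Step 3: Interpolate endpoints linearly; if unreached, use highest concentration. GI50 marks 50% less growth. TGI is the concentration that stops growth completely.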

Test systems include COLO 205 colon; HCT-116 colon; HL-60(TB) leukemia; HT29 colon; NCI-H460 lung; OVCAR-3 ovarian; SF-268 CNS; SF-295 CNS; SNB-19 CNS; LOX IMVI melanoma.
What all share (assay): NCI tumour cell line growth inhibition, 48 h

Turning to `CC(C)(C)CC(C)(C)c1cc2c(O)c(c1)Cc1cc(C(C)(C)CC(C)(C)C)cc(c1O)Cc1cc(C(C)(C)CC(C)(C)C)cc(c1O)Cc1cc(C(C)(C)CC(C)(C)C)cc(c1O)Cc1cc(C(C)(C)CC(C)(C)C)cc(c1O)C2`, the TGI in the experiment with COLO 205 colon, with HCT-116 colon, in the experiment with HL-60(TB) leukemia, with HT29 colon, in the experiment on NCI-H460 lung and in the experiment on OVCAR-3 ovarian was over 100 µM each time. The TGI in the experiment with SF-268 CNS, in the experiment on SF-295 CNS and in the experiment on SNB-19 CNS was over 100 µM throughout.

In the case of `COc1cc(Nc2nc3ccccc3nc2NS(=O)(=O)c2ccc(NC(=O)c3ccc(C)c(OC)c3)cc2)cc(OC)c1`, the TGI in the experiment with HCT-116 colon was over 100 µM; in the experiment with HL-60(TB) leukemia, 38 µM and 52.9 µM and > 8.02 µM; in the experiment on HT29 colon, over 100 µM; with LOX IMVI melanoma, over 100 µM; with NCI-H460 lung, over 100 µM; in the experiment with SF-268 CNS it was over 100 µM. The TGI is 9.85 µM and 33.6 µM and > 5.22 µM in the experiment with SF-295 CNS; 31 µM and > 100 µM and > 10 µM with SNB-19 CNS. For the same molecule, the GI50 in the experiment with SF-295 CNS is 2.03 µM and 8.73 µM and 1.08 µM; with SNB-19 CNS, 3.14 µM and 19.8 µM and 2.3 µM.

For `CC1=C(C(=O)Nc2cc(=O)n(C)c(=O)n2C)C(c2cccc([N+](=O)[O-])c2)C(C(=O)Nc2cc(=O)n(C)c(=O)n2C)=C(C)N1`, the TGI in the experiment on COLO 205 colon, in the experiment with HL-60(TB) leukemia, with HT29 colon, in the experiment with LOX IMVI melanoma, in the experiment on NCI-H460 lung and with OVCAR-3 ovarian was over 100 µM throughout. Besides, the TGI in the experiment with SF-268 CNS, in the experiment on SF-295 CNS and with SNB-19 CNS was over 100 µM each time.

Turning to `CN1CC(=O)N(C)c2ncn(Cc3ccccc3)c2C1=O`, the TGI in the experiment on COLO 205 colon, in the experiment on HL-60(TB) leukemia, in the experiment with HT29 colon, with LOX IMVI melanoma, with NCI-H460 lung and in the experiment with OVCAR-3 ovarian was over 100 µM in each case. The TGI with SF-268 CNS, with SF-295 CNS and with SNB-19 CNS was over 100 µM each time.

Regarding `NC1CCC(Nc2nc(NCc3ccc(-c4ccccc4O)nc3)c3ncn(C4CCCC4)c3n2)CC1` (stereo not drawn), the GI50 is 0.012 µM in the experiment on COLO 205 colon; 0.0317 µM with HCT-116 colon; under 0.01 µM in the experiment on HL-60(TB) leukemia; under 0.01 µM with HT29 colon; 0.0337 µM with NCI-H460 lung; 0.0288 µM with OVCAR-3 ovarian. Moreover, the results for the GI50 with SF-268 CNS, in the experiment with SF-295 CNS and in the experiment on SNB-19 CNS were under 0.01 µM, 0.0295 µM and under 0.0147 µM, respectively. Also, the TGI in the experiment on COLO 205 colon amounted to 0.0278 µM; in the experiment on HCT-116 colon it was 1.15 µM; in the experiment with HT29 colon, 0.21 µM; in the experiment on NCI-H460 lung, 1.17 µM; in the experiment with OVCAR-3 ovarian, 0.0899 µM; in the experiment on SF-268 CNS, 0.344 µM. Moreover, the TGI is 0.219 µM in the experiment on SF-295 CNS and 1.32 µM with SNB-19 CNS.

`COc1ccc(-c2cc(-c3cccn3C)c(C#N)c(=O)[nH]2)cc1OC`: the GI50 with COLO 205 colon, with HCT-116 colon, in the experiment on HT29 colon, with LOX IMVI melanoma, with NCI-H460 lung and in the experiment on OVCAR-3 ovarian was over 100 µM each time. The GI50 in the experiment on SF-268 CNS, in the experiment with SF-295 CNS and in the experiment on SNB-19 CNS was over 100 µM throughout. In addition, the TGI in the experiment with COLO 205 colon, in the experiment with HCT-116 colon, in the experiment on HT29 colon, in the experiment on LOX IMVI melanoma, in the experiment on NCI-H460 lung and in the experiment on OVCAR-3 ovarian was over 100 µM in each case. In addition, the TGI in the experiment with SF-268 CNS, in the experiment with SF-295 CNS and in the experiment on SNB-19 CNS was over 100 µM each time.

Take `O=C1c2ccccc2-c2oc(=O)c3ccccc3c21`: the TGI in the experiment on COLO 205 colon, with HCT-116 colon, in the experiment on HL-60(TB) leukemia, with HT29 colon, in the experiment on LOX IMVI melanoma and in the experiment with NCI-H460 lung was over 100 µM each time. Further, the TGI in the experiment with OVCAR-3 ovarian, with SF-295 CNS and in the experiment with SNB-19 CNS was over 100 µM in each case.

Take `O=C(c1ccccc1)c1c(-c2ccccc2)sc2nc3ccccc3nc12`: the TGI in the experiment with COLO 205 colon, in the experiment on HCT-116 colon, in the experiment with HL-60(TB) leukemia, in the experiment on HT29 colon, in the experiment with NCI-H460 lung and in the experiment with OVCAR-3 ovarian was over 100 µM each time. Further, the TGI in the experiment with SF-268 CNS, in the experiment on SF-295 CNS and with SNB-19 CNS was over 100 µM throughout.

In the case of `Cc1cc(-c2nc3sccn3c2/C=N/N=C(N)N)c(C)s1`, the GI50 in the experiment with HCT-116 colon was 12.7 µM; in the experiment with HL-60(TB) leukemia it was 15.6 µM; in the experiment with HT29 colon it was 15.6 µM; with LOX IMVI melanoma, 16.4 µM; with NCI-H460 lung, 16.8 µM; in the experiment on OVCAR-3 ovarian, 13.2 µM. Moreover, the GI50 with SF-268 CNS was 16.6 µM; with SF-295 CNS, 13.5 µM; in the experiment with SNB-19 CNS, 16.2 µM. In addition, the TGI was 25.3 µM with HCT-116 colon; over 100 µM in the experiment with HL-60(TB) leukemia; 33.8 µM in the experiment on HT29 colon; 30.5 µM with LOX IMVI melanoma; 30.4 µM in the experiment on NCI-H460 lung; 26 µM in the experiment on OVCAR-3 ovarian. In addition, the TGI in the experiment with SF-268 CNS was determined as 31.7 µM; in the experiment on SF-295 CNS, 26.3 µM; in the experiment with SNB-19 CNS, 32.8 µM.

Turning to `CNC/C(Cl)=N/S(=O)(=O)c1ccc(C)cc1`, the TGI was 38.2 µM in the experiment with COLO 205 colon; 21.1 µM in the experiment on HCT-116 colon; 60.4 µM in the experiment with HT29 colon; 27.3 µM in the experiment with LOX IMVI melanoma; 27.2 µM in the experiment with NCI-H460 lung; 25.5 µM in the experiment on OVCAR-3 ovarian. The TGI is over 100 µM in the experiment with SF-268 CNS, 32.4 µM in the experiment with SF-295 CNS and 68.2 µM with SNB-19 CNS.

As to `C#CCOCn1cnc2c(Sc3c([N+](=O)[O-])ncn3C)ncnc21`, the TGI in the experiment on COLO 205 colon, in the experiment with HL-60(TB) leukemia, in the experiment with HT29 colon, in the experiment with LOX IMVI melanoma, with NCI-H460 lung and in the experiment on OVCAR-3 ovarian was over 100 µM throughout. Besides, the TGI in the experiment on SF-268 CNS, in the experiment on SF-295 CNS and with SNB-19 CNS was over 100 µM in each case.

Consider `COC(=O)C1=C(O)c2cc(-c3ccccc3)c(-c3ccccc3)c(C#N)c2NC(=O)C1`, for which the TGI is over 100 µM in the experiment on COLO 205 colon; over 100 µM in the experiment with HCT-116 colon; over 100 µM with HT29 colon; over 100 µM with NCI-H460 lung; over 100 µM in the experiment with OVCAR-3 ovarian; 42.1 µM in the experiment with SF-295 CNS. For the same molecule, the TGI in the experiment on SNB-19 CNS is over 100 µM.
